Measurements: patent US6703371B1, “Preparations for reducing oxygen consumption during physical efforts” (priority 1999, dated 2004)
Where two headings read alike, the source gives them in different places.

Legend:
test subject [1] = test: Bicycle ergometer test at 100 W: antagonism between inactive (1st dosage) and active (2nd dosage) substances (Example 1b); type: in vivo, human; conditions: for Change in the oxygen consumption after 2nd dosage / Average heart rate after 2nd dosage: 2nd dosage 1 mg; for Change in the oxygen consumption after 2nd dosage: relative to after 1st dosage; for Average heart rate after 1st dosage: 10-minute test at 100 W
Protocol: (§1) 13 to Mar. 6, 1999, with a subject in good physical condition under standard conditions. The subject was required each morning in the fasting state to perform successively (without interruption) at mechanical power output of 100 W, 125 W and 150 W, each lasting 10 minutes (total test duration 30 minutes each time). […] The heat production induced by mechanical exertion was calculated from the changes in the heart rate. An alternative possibility is also to determine it on the basis of the increase in humidity caused by the perspiration (the tests are carried out in a closed room) or reduction in weight (1 g of water=2.26 kJ). […] The values indicated in table la for the “average heart rate” are in each case averages over the 30-minute duration of the test; relative values for the oxygen consumption were established on the basis of the heart rates in a known manner, and the relative values indicated in Table 1a are based on the oxygen consumption on the first day (=100%); the values listed in the column “heat production” in Table 1a give the percentage deviation of the heat production, established on the basis of the perspiration, from the average from all the tests.
(§2) It is known that the oxygen uptake can be determined by measuring the heart rate as a function of the mechanical exertion. This ergometric method is based on establishing the oxygen transport volume through the action of the heart. Since the stroke volume is essentially constant irrespective of the intensity of the mechanical work, and the increased oxygen demand caused by the increase in work results in an increase in the heart rate, the quantity of the transported oxygen can be established by determining the additional heartbeats caused by the work. A 3-stage ergometer as recommended by the World Health Organization (WHO) is used in physiology research institutes and fitness clubs around the world.

test subject [2] = test: Bicycle ergometer test at 100 W: active ingredient, sucrose, further active ingredient, amino acid/vitamin product (Example 1c); type: in vivo, human; conditions: for Average heart rate after 4th dos.: 1 mg series, 4th dosage 100 mg of Na glutamate, 0.3 mg of folic acid, 5 μg of cyanocobalamin in 10 mg of gelatin; for Average heart rate after 3rd dos.: 3rd dosage further 1 mg of active ingredient after sucrose; for Average heart rate after 2nd dos.: after 1 mg of active ingredient, then 2nd dosage 2.5 g of sucrose
Protocol: as §1, §2

[3] = Oxygen-sparing action during physical work, general findings in the description; type: in vivo; conditions: result in words; for Oxygen demand after administration: even occasionally increased
test subject [4] = test: Bicycle ergometer test at 100 W: active ingredient, sucrose, further active ingredient, amino acid/vitamin product (Example 1c); type: in vivo, human; conditions: for Change in oxygen consumption after 2nd dos. / Change in oxygen consumption after 4th dos.: 1 mg series; for Change in oxygen consumption after 2nd dos.: 2nd dosage 2.5 g of sucrose; for Change in oxygen consumption after 2nd dos. / Change in oxygen consumption after 4th dos. / Change in oxygen consumption after 3rd dos.: relative to preceding dosage; for Change in oxygen consumption after 4th dos.: 4th dosage Na glutamate/folic acid/cyanocobalamin/gelatin; for Average heart rate after 1st dos.: 1st dosage 1 mg as dilute aqueous solution, 10-minute test at 100 W; for Change in oxygen consumption after 3rd dos.: 3rd dosage further 1 mg of active ingredient
test subject [5] = type: in vivo, human; conditions: Homo sapiens, 10 min
[6] = read-out: Change in the oxygen demand
[7] = read-out: Heat production (deviation from the average of all the tests)

CN(C)CCN1C(=O)c2ccccc2N(C)c2ccccc21 [dibenzepin]
Change in the oxygen consumption after 2nd dosage (test subject [1]; after 50 mg of opipramol, 100 W): −59%
Average heart rate after 2nd dosage (test subject [1]; after 1st dosage of 50 mg of opipramol, 100 W): 88.3 per minute
Average heart rate after 4th dos. (test subject [2]): 86.4 per minute
Average heart rate after 3rd dos. (test subject [2]): 115 per minute
Average heart rate after 2nd dos. (test subject [2]): 111.5 per minute
Suitability for reducing the oxygen consumption during physical work [3]: suitable
Change in oxygen consumption after 2nd dos. (test subject [4]): +69%
Change in oxygen consumption after 4th dos. (test subject [4]): −57%
Average heart rate after 1st dos. (test subject [4]): 77.2 per minute
Change in oxygen consumption after 3rd dos. (test subject [4]): 0%

COc1ccc2c3c1O[C@H]1[C@@H](O)CC[C@H]4[C@@H](C2)N(C)CC[C@@]341 [dihydrocodeine]
Suitability for reducing the oxygen consumption during physical work [3]: suitable

CN(C)CCOC(C)(c1ccccc1)c1ccccn1 (centres unmarked) [doxylamine]
Oxygen demand after administration [3]: not reduced

CN1C(=O)CN=C(c2ccccc2F)c2cc([N+](=O)[O-])ccc21 [flunitrazepam]
change in vivo at 1 mg (test subject [5]; [6]): -39%
change in vivo at 1 mg (test subject [5]; [7]): -40%
Suitability for reducing the oxygen consumption during physical work [3]: suitable

O=C1Nc2ccc(Cl)cc2C(c2ccccc2Cl)=NC1O (centres unmarked) [lorazepam]
Average heart rate after 1st dosage (test subject [1]; 1st dosage 1 mg in 20 ml of water): 121.5 per minute
change in vivo at 1 mg (test subject [1]; Homo sapiens, 1st dosage 1 mg, 100 W, read-out: Change in the oxygen consumption after 1st dosage): 34%
Oxygen demand after administration [3]: not reduced

CN1CC[C@]23c4c5ccc(O)c4O[C@H]2[C@@H](O)C=C[C@H]3[C@H]1C5 [morphine]
Suitability for reducing the oxygen consumption during physical work [3]: suitable

O=C1CN=C(c2ccccc2)c2cc([N+](=O)[O-])ccc2N1 [nitrazepam]
change in vivo at 1 mg (test subject [5]; [6]): 0%
change in vivo at 1 mg (test subject [5]; [7]): 7%
Average heart rate after 1st dosage (test subject [1]; 1st dosage 10 mg in 20 ml of water): 131.4 per minute
change in vivo at 10 mg (test subject [1]; Homo sapiens, 1st dosage 10 mg, 100 W, read-out: Change in the oxygen consumption after 1st dosage): 21%
Oxygen demand after administration [3]: not reduced

COc1ccc2c(c1OC)C(=O)O[C@@H]2[C@H]1c2c(cc3c(c2OC)OCO3)CCN1C [noscapine]
Suitability for reducing the oxygen consumption during physical work [3]: suitable

OCCN1CCN(CCCN2c3ccccc3C=Cc3ccccc32)CC1 [opipramol]
Oxygen demand after administration [3]: not reduced

O=C1Nc2ccc(Cl)cc2C(c2ccccc2)=NC1O (centres unmarked) [oxazepam]
change in vivo at 1 mg (test subject [5]; [6]): 0%
change in vivo at 1 mg (test subject [5]; [7]): 7%
change in vivo at 7 mg (test subject [1]; Homo sapiens, 1st dosage 7 mg, 100 W, read-out: Change in the oxygen consumption after 1st dosage): 33%

CSc1ccc2c(c1)N(CCC1CCCCN1C)c1ccccc1S2 (centres unmarked) [thioridazine]
Change in the oxygen consumption after 2nd dosage (test subject [1]; after 10 mg of imipramine, 100 W): −56%
Average heart rate after 2nd dosage (test subject [1]; after 1st dosage of 10 mg of imipramine, 100 W): 81.5 per minute
Average heart rate after 4th dos. (test subject [2]): 86.5 per minute
Average heart rate after 3rd dos. (test subject [2]): 111.2 per minute
Average heart rate after 2nd dos. (test subject [2]): 111.0 per minute
Suitability for reducing the oxygen consumption during physical work [3]: suitable
Change in oxygen consumption after 2nd dos. (test subject [4]): +69%
Change in oxygen consumption after 4th dos. (test subject [4]): −49%
Average heart rate after 1st dos. (test subject [4]): 76.3 per minute
Change in oxygen consumption after 3rd dos. (test subject [4]): 0%

CN1CCN(C(=O)OC2c3nccnc3C(=O)N2c2ccc(Cl)cn2)CC1 (centres unmarked) [zopiclone]
change in vivo at 1 mg (test subject [5]; [7]): -44%
Suitability for reducing the oxygen consumption during physical work [3]: suitable
